According to US8889688B2, “Piperazines as antimalarial agents” (Actelion Pharmaceuticals Ltd., priority 2011, dated 2014):
Like-named read-outs stand apart in the source and are kept apart here.

What was measured:
[1] = test system: erythrocytic stages of P. falciparum NF54; assay: Plasmodium falciparum in vitro assay, [3H] hypoxanthine incorporation; format: cell-based; conditions: P. falciparum NF54 in human red blood cells, 48 h + 24 h incubation
Description: In Vitro Antimalarial Activity: Plasmodium falciparum In Vitro Assay In vitro activity against erythrocytic stages of P. falciparum in human red blood cells is determined using a [^3H] hypoxanthine incorporation assay. […] Thereafter, the parasite cultures incubated in screening medium containing washed human red blood cells at 2.5% hematocrit (0.3% parasitemia) are added to the serially diluted compounds and incubated in a humidifying atmosphere at 37° C., 4% CO2, 3% O2, and 93% N2. After 48 h, [^3H] hypoxanthine (0.5 μCi) is added to each well of a plate. The plates are incubated for a further 24 h under the same conditions then harvested with a Betaplate cell harvester (Wallac) and washed with distilled water. The dried filters are inserted into a plastic foil with 10 mL of scintillation fluid, and counted in a Betaplate liquid scintillation counter. IC50 values are calculated from sigmoidal inhibition curves using Microsoft Excel.

[2] = test system: P. berghei strain GFP-ANKA; assay: In vivo antimalarial efficacy study in infected NMRI mice; conditions: female NMRI mice infected with P. berghei GFP-ANKA, single oral dose of 100 mg/kg 24 h after infection, parasitemia 48 h after drug treatment (day 3); for inhibition in vivo at 100 mg/kg: Plasmodium berghei, read-out: Activity (inhibition of parasitemia) expressed as a percent relative to the control group
Description: In Vivo Antimalarial Efficacy Studies
In vivo antimalarial activity is assessed for groups of three female NMRI mice (20-22 g) intravenously infected on day 0 with P. berghei strain GFP-ANKA (0.2 mL heparinized saline suspension containing 2×10^7 parasitized erythrocytes). In control mice, parasitemia typically rises to approximately 40% by day 3 after infection. Compounds are formulated in Tween 80/ethanol (7%/3%) usually at concentrations of 10 mg/mL. Compounds are administered in a volume of 10 mL/kg orally as single doses (1×100 mg/kg, 24 h after infection). 48 h after drug treatment (day 3 post-infection), 1 μl tail blood is taken, resuspended in 1 mL PBS buffer and parasitemia determined with a FACScan (Becton Dickinson) by counting 100′000 red blood cells. Activity is calculated as the difference between the mean value of the control group and treated groups expressed as a percent relative to the control group.

[3] = Plasmodium falciparum, Erythrocyte, 72 h, screening medium with Albumax (5 g/L), read-out: IC50 on NF54 (with Albumax)
[4] = Plasmodium falciparum, Erythrocyte, 72 h, screening medium with human serum (50% final concentration), read-out: IC50 on NF54 (with 50% Serum)

Row | Compound | IC50 ([1]; screening medium with Albumax (5 g/L), read-out: IC50 on NF54 (with Albumax)) [nM] | IC50 ([1]; screening medium with human serum (50% final concentration), read-out: IC50 on NF54 (with 50% Serum)) [nM] | Activity (inhibition of parasitemia) expressed as a percent relative to the control group [2] [%] | IC50 [1, 3] [nM] | IC50 [1, 4] [nM] | inhibition in vivo at 100 mg/kg [2] [%]
1 | (S)-N-[4-(4-Acetyl-piperazin-1-yl)-benzyl]-N-[1-benzyl-2-(4-{4-[(2-hydroxy-ethyl)-methyl-amino]-benzyl}-piperazin-1-yl)-2-oxo-ethyl]-3-(4-isopropyl-phenyl)-acrylamide [Example 61] | 1.2 | 6.7 | 98.8 | – | – | –
2 | CCc1ccc(C=CC(=O)N(Cc2ccc(N3CCN(C(C)=O)CC3)cc2)[C@@H](Cc2ccccc2)C(=O)N2CCN(Cc3ccc(N(C)C)cc3)CC2)cc1 [Example 20, (S)-N-[4-(4-Acetyl-piperazin-1-yl)-benzyl]-N-{1-benzyl-2-[4-(4-dimethylamino-benzyl)-piperazin-1-yl]-2-oxo-ethyl}-3-(4-ethyl-phenyl)-acrylamide] | – | – | – | 1.2 | 7.1 | 98.5
3 | CCCOc1ccc(C=CC(=O)N(Cc2ccc(N3CCN(C(C)=O)CC3)cc2)[C@@H](Cc2ccccc2)C(=O)N2CCN(Cc3ccc(N(C)CCO)cc3)CC2)cc1 [Example 57, (S)-N-[4-(4-Acetyl-piperazin-1-yl)-benzyl]-N-[1-benzyl-2-(4-{4-[(2-hydroxy-ethyl)-methyl-amino]-benzyl}-piperazin-1-yl)-2-oxo-ethyl]-3-(4-propoxy-phenyl)-acrylamide] | – | – | – | 1.7 | 5.1 | 98.2
4 | CC(=O)N1CCN(c2ccc(CN(C(=O)C=Cc3ccc(S(C)(=O)=O)cc3)[C@@H](Cc3ccccc3)C(=O)N3CCN(Cc4ccc(N(C)CCO)cc4)CC3)cc2)CC1 [Example 55, (S)-N-[4-(4-Acetyl-piperazin-1-yl)-benzyl]-N-[1-benzyl-2-(4-{4-[(2-hydroxy-ethyl)-methyl-amino]-benzyl}-piperazin-1-yl)-2-oxo-ethyl]-3-(4-methanesulfonyl-phenyl)-acrylamide] | – | – | – | 7.5 | 14.8 | < 40
5 | CC(=O)N1CCN(c2ccc(CN(C(=O)C=Cc3ccc(C(C)(C)C)cc3)[C@@H](Cc3ccccc3)C(=O)N3CCN(Cc4ccc(Cl)cc4)CC3)cc2)CC1 [Example 43, (S)-N-[4-(4-Acetyl-piperazin-1-yl)-benzyl]-N-{1-benzyl-2-[4-(4-chloro-benzyl)-piperazin-1-yl]-2-oxo-ethyl}-3-(4-tert-butyl-phenyl)-acrylamide] | – | – | – | 1.1 | 13.5 | 98.7
6 | CCc1ccc(C=CC(=O)N(Cc2ccc(N3CCN(C(C)=O)CC3)cc2)[C@@H](Cc2ccccc2)C(=O)N2CCN(Cc3ccc(Cl)cc3)CC2)cc1 [Example 40, (S)-N-[4-(4-Acetyl-piperazin-1-yl)-benzyl]-N-{1-benzyl-2-[4-(4-chloro-benzyl)-piperazin-1-yl]-2-oxo-ethyl}-3-(4-ethyl-phenyl)-acrylamide] | – | – | – | 1.7 | 10.5 | 93.6
7 | CC(=O)N1CCN(c2ccc(CN(C(=O)C=Cc3ccc(S(C)(=O)=O)cc3)[C@@H](Cc3ccccc3)C(=O)N3CCN(Cc4ccc(Cl)cc4)CC3)cc2)CC1 [Example 36, (S)-N-[4-(4-Acetyl-piperazin-1-yl)-benzyl]-N-{1-benzyl-2-[4-(4-chloro-benzyl)-piperazin-1-yl]-2-oxo-ethyl}-3-(4-methanesulfonyl-phenyl)-acrylamide] | – | – | – | 7.8 | 28 | 46.8
8 | CC(=O)N1CCN(c2ccc(CN(C(=O)C=Cc3ccc(C(F)(F)F)cc3)[C@@H](Cc3ccccc3)C(=O)N3CCN(Cc4ccccc4)CC3)cc2)CC1 [Example 1, (S)-N-[4-(4-Acetyl-piperazin-1-yl)-benzyl]-N-[1-benzyl-2-(4-benzyl-piperazin-1-yl)-2-oxo-ethyl]-3-(4-trifluoromethyl-phenyl)-acrylamide, reference compound] | – | – | – | 5.1 | 27.6 | < 40
9 | CCOc1ccc(C=CC(=O)N(Cc2ccc(N3CCN(C(C)=O)CC3)cc2)[C@@H](Cc2ccccc2)C(=O)N2CCN(Cc3ccc(N(C)CCO)cc3)CC2)cc1 [Example 54, (S)-N-[4-(4-Acetyl-piperazin-1-yl)-benzyl]-N-[1-benzyl-2-(4-{4-[(2-hydroxy-ethyl)-methyl-amino]-benzyl}-piperazin-1-yl)-2-oxo-ethyl]-3-(4-ethoxy-phenyl)-acrylamide] | – | – | – | 1.6 | 5.9 | 93.7
10 | CCOc1ccc(C=CC(=O)N(Cc2ccc(N3CCN(C(C)=O)CC3)cc2)[C@@H](Cc2ccccc2)C(=O)N2CCN(Cc3ccc(Cl)cc3)CC2)cc1 [Example 35, (S)-N-[4-(4-Acetyl-piperazin-1-yl)-benzyl]-N-{1-benzyl-2-[4-(4-chloro-benzyl)-piperazin-1-yl]-2-oxo-ethyl}-3-(4-ethoxy-phenyl)-acrylamide] | – | – | – | 2.9 | 9 | 98.7
11 | CC(=O)N1CCN(c2ccc(CN(C(=O)C=Cc3ccc(S(C)(=O)=O)cc3)[C@@H](Cc3ccccc3)C(=O)N3CCN(Cc4ccccc4)CC3)cc2)CC1 [Example 6, (S)-N-[4-(4-Acetyl-piperazin-1-yl)-benzyl]-N-[1-benzyl-2-(4-benzyl-piperazin-1-yl)-2-oxo-ethyl]-3-(4-methanesulfonyl-phenyl)-acrylamide] | – | – | – | 9.4 | 32 | 80.4
12 | CC(=O)N1CCN(c2ccc(CN(C(=O)C=Cc3ccc(OC(C)C)cc3)[C@@H](Cc3ccccc3)C(=O)N3CCN(Cc4ccc(N(C)CCO)cc4)CC3)cc2)CC1 [Example 58, (S)-N-[4-(4-Acetyl-piperazin-1-yl)-benzyl]-N-[1-benzyl-2-(4-{4-[(2-hydroxy-ethyl)-methyl-amino]-benzyl}-piperazin-1-yl)-2-oxo-ethyl]-3-(4-isopropoxy-phenyl)-acrylamide] | – | – | – | 1.4 | 3.9 | 98.2
13 | CC(=O)N1CCN(c2ccc(CN(C(=O)C=Cc3ccc(C(F)(F)F)cc3)[C@@H](Cc3ccccc3)C(=O)N3CCN(Cc4ccc(S(C)(=O)=O)cc4)CC3)cc2)CC1 [Example 47, (S)-N-(4-(4-acetylpiperazin-1-yl)benzyl)-N-(1-(4-(4-(methylsulfonyl)benzyl)piperazin-1-yl)-1-oxo-3-phenylpropan-2-yl)-3-(4-(trifluoromethyl)phenyl)acrylamide] | – | – | – | 0.5 | 3.5 | 98.4
14 | CC(=O)N1CCN(c2ccc(CN(C(=O)C=Cc3ccc(OC(C)C)cc3)[C@@H](Cc3ccccc3)C(=O)N3CCN(Cc4ccc(C#N)cc4)CC3)cc2)CC1 [Example 29, (S)-N-[4-(4-Acetyl-piperazin-1-yl)-benzyl]-N-{1-benzyl-2-[4-(4-cyano-benzyl)-piperazin-1-yl]-2-oxo-ethyl}-3-(4-isopropoxy-phenyl)-acrylamide] | – | – | – | 1.1 | 3.7 | 99.2
15 | CCc1ccc(C=CC(=O)N(Cc2ccc(N3CCN(C(C)=O)CC3)cc2)[C@@H](Cc2ccccc2)C(=O)N2CCN(Cc3ccc(N(C)CCO)cc3)CC2)cc1 [Example 59, (S)-N-[4-(4-Acetyl-piperazin-1-yl)-benzyl]-N-[1-benzyl-2-(4-{4-[(2-hydroxy-ethyl)-methyl-amino]-benzyl}-piperazin-1-yl)-2-oxo-ethyl]-3-(4-ethyl-phenyl)-acrylamide] | – | – | – | 1.6 | 3.8 | 96.5
16 | CC(=O)N1CCN(c2ccc(CN(C(=O)C=Cc3ccc(OC(F)(F)F)cc3)[C@@H](Cc3ccccc3)C(=O)N3CCN(Cc4ccc(C#N)cc4)CC3)cc2)CC1 [Example 33, (S)-N-[4-(4-Acetyl-piperazin-1-yl)-benzyl]-N-{1-benzyl-2-[4-(4-cyano-benzyl)-piperazin-1-yl]-2-oxo-ethyl}-3-(4-trifluoromethoxy-phenyl)-acrylamide] | – | – | – | 3.3 | 10.9 | 97.4
17 | CCOc1ccc(C=CC(=O)N(Cc2ccc(N3CCN(C(C)=O)CC3)cc2)[C@@H](Cc2ccccc2)C(=O)N2CCN(Cc3ccc(C#N)cc3)CC2)cc1 [Example 25, (S)-N-[4-(4-Acetyl-piperazin-1-yl)-benzyl]-N-{1-benzyl-2-[4-(4-cyano-benzyl)-piperazin-1-yl]-2-oxo-ethyl}-3-(4-ethoxy-phenyl)-acrylamide] | – | – | – | 1.2 | 4.7 | 99.1
